Reference: PubChem BioAssay AID2060507 (Molecular Pharmacology Branch, DTP, NCI, 2025)

Test system: 519858-162-T-J1-PDC complex spheroid viability
Experiment: Anticancer human tumor 519858-162-T-J1-PDC patient-derived colon adenocarcinoma cell line growth inhibition [GQUAD]
Conditions: for IC50: curve of first compound; for viability, T/C: stronger effect = lower value
Outline: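 Multi-cell-type spheroids of tumor cells with HUVEC and mesenchymal stem cells, treated with drug combinations. Concentrations descend in half-log steps from near clinical Cmax, or from 10 microM where Cmax is unknown; viability read-out.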

[1] = second compound 0.0316 µM, first compound 0.0316 µM
[2] = second compound 0.0316 µM, first compound 0.316 µM
[3] = second compound 0.1 µM, first compound 0.0316 µM
[4] = second compound 0.1 µM, first compound 0.316 µM
[5] = second compound 0.316 µM, first compound 0.0316 µM
[6] = second compound 0.316 µM, first compound 0.316 µM
[7] = second compound 1 µM, first compound 0.0316 µM
[8] = second compound 1 µM, first compound 0.316 µM
[9] = second compound 3.16 µM, first compound 0.0316 µM
[10] = second compound 3.16 µM, first compound 0.316 µM
[11] = second compound 10 µM, first compound 0.0316 µM
[12] = second compound 10 µM, first compound 0.316 µM
[13] = second compound 0.0316 µM, first compound 0.1 µM
[14] = second compound 0.0316 µM, first compound 1 µM
[15] = second compound 0.0316 µM, first compound 3.16 µM
[16] = second compound 0.0316 µM, first compound 10 µM
[17] = second compound 0.1 µM, first compound 0.1 µM
[18] = second compound 0.1 µM, first compound 1 µM
[19] = second compound 0.1 µM, first compound 3.16 µM
[20] = second compound 0.1 µM, first compound 10 µM
[21] = second compound 0.316 µM, first compound 0.1 µM
[22] = second compound 0.316 µM, first compound 1 µM
[23] = second compound 0.316 µM, first compound 3.16 µM
[24] = second compound 0.316 µM, first compound 10 µM
[25] = second compound 1 µM, first compound 0.1 µM
[26] = second compound 1 µM, first compound 1 µM
[27] = second compound 1 µM, first compound 3.16 µM
[28] = second compound 1 µM, first compound 10 µM
[29] = second compound 3.16 µM, first compound 0.1 µM
[30] = second compound 3.16 µM, first compound 1 µM
[31] = second compound 3.16 µM, first compound 3.16 µM
[32] = second compound 3.16 µM, first compound 10 µM
[33] = second compound 10 µM, first compound 0.1 µM
[34] = second compound 10 µM, first compound 1 µM
[35] = second compound 10 µM, first compound 3.16 µM
[36] = second compound 10 µM, first compound 10 µM
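Also: spheroids exposed to compounds for 7 days.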
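For viability, T/C in this document: 100% = DMSO vehicle control viability.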

## CC[C@@]1(O)C(=O)OCc2c1cc1n(c2=O)Cc2cc3c(CN(C)C)c(O)ccc3nc2-1 + Cc1cnc(CNC(=O)c2c(=O)c3ccc(N4CCCN(C)CC4)nc3n3c2sc2ccccc23)cn1
Second compound 0.0316 µM
  IC50: > 0.316 µM
Second compound 0.1 µM
  IC50: > 0.316 µM
Second compound 0.316 µM
  IC50: > 0.316 µM
Second compound 1 µM
  IC50: > 0.316 µM
Second compound 3.16 µM
  IC50: > 0.316 µM
Second compound 10 µM
  IC50: < 0.000999 µM
Second compound 0.0316 µM, first compound 0.000999 µM
  viability, T/C: 88%
Second compound 0.0316 µM, first compound 0.00316 µM
  viability, T/C: 91%
Second compound 0.0316 µM, first compound 0.00999 µM
  viability, T/C: 89.7%
[1]
  viability, T/C: 67.7%
Second compound 0.0316 µM, first compound 0.0999 µM
  viability, T/C: 78%
[2]
  viability, T/C: 83.7%
Second compound 0.1 µM, first compound 0.000999 µM
  viability, T/C: 93.8%
Second compound 0.1 µM, first compound 0.00316 µM
  viability, T/C: 89.3%
Second compound 0.1 µM, first compound 0.00999 µM
  viability, T/C: 84.5%
[3]
  viability, T/C: 79.5%
Second compound 0.1 µM, first compound 0.0999 µM
  viability, T/C: 70.9%
[4]
  viability, T/C: 59.4%
Second compound 0.316 µM, first compound 0.000999 µM
  viability, T/C: 90.1%
Second compound 0.316 µM, first compound 0.00316 µM
  viability, T/C: 86.8%
Second compound 0.316 µM, first compound 0.00999 µM
  viability, T/C: 96.5%
[5]
  viability, T/C: 78.8%
Second compound 0.316 µM, first compound 0.0999 µM
  viability, T/C: 80.7%
[6]
  viability, T/C: 74.6%
Second compound 1 µM, first compound 0.000999 µM
  viability, T/C: 66.1%
Second compound 1 µM, first compound 0.00316 µM
  viability, T/C: 58.9%
Second compound 1 µM, first compound 0.00999 µM
  viability, T/C: 72.8%
[7]
  viability, T/C: 49.7%
Second compound 1 µM, first compound 0.0999 µM
  viability, T/C: 59%
[8]
  viability, T/C: 62.9%
Second compound 3.16 µM, first compound 0.000999 µM
  viability, T/C: 67.2%
Second compound 3.16 µM, first compound 0.00316 µM
  viability, T/C: 43.9%
Second compound 3.16 µM, first compound 0.00999 µM
  viability, T/C: 75.9%
[9]
  viability, T/C: 43%
Second compound 3.16 µM, first compound 0.0999 µM
  viability, T/C: 38.2%
[10]
  viability, T/C: 64.4%
Second compound 10 µM, first compound 0.000999 µM
  viability, T/C: 58.5%
Second compound 10 µM, first compound 0.00316 µM
  viability, T/C: 34.9%
Second compound 10 µM, first compound 0.00999 µM
  viability, T/C: 40%
[11]
  viability, T/C: 41.2%
Second compound 10 µM, first compound 0.0999 µM
  viability, T/C: 37.8%
[12]
  viability, T/C: 37.6%

## COc1cc(C2c3cc4c(cc3C(OC3OC5COC(C)OC5C(O)C3O)C3COC(=O)C23)OCO4)cc(OC)c1O (stereo unspecified) + Cc1cnc(CNC(=O)c2c(=O)c3ccc(N4CCCN(C)CC4)nc3n3c2sc2ccccc23)cn1
Second compound 0.0316 µM
  IC50: > 10 µM
Second compound 0.1 µM
  IC50: > 10 µM
Second compound 0.316 µM
  IC50: 8.09 µM
Second compound 1 µM
  IC50: > 10 µM
Second compound 3.16 µM
  IC50: 5.35 µM
Second compound 10 µM
  IC50: < 0.0316 µM
[1]
  viability, T/C: 90%
[13]
  viability, T/C: 94.6%
[2]
  viability, T/C: 94.9%
[14]
  viability, T/C: 105%
[15]
  viability, T/C: 59.7%
[16]
  viability, T/C: 83.3%
[3]
  viability, T/C: 93.7%
[17]
  viability, T/C: 115%
[4]
  viability, T/C: 86.5%
[18]
  viability, T/C: 79.9%
[19]
  viability, T/C: 80.4%
[20]
  viability, T/C: 64.4%
[5]
  viability, T/C: 59%
[21]
  viability, T/C: 69.9%
[6]
  viability, T/C: 103%
[22]
  viability, T/C: 63.8%
[23]
  viability, T/C: 71.9%
[24]
  viability, T/C: 45.1%
[7]
  viability, T/C: 80.4%
[25]
  viability, T/C: 51.6%
[8]
  viability, T/C: 62%
[26]
  viability, T/C: 58.7%
[27]
  viability, T/C: 55.2%
[28]
  viability, T/C: 61.8%
[9]
  viability, T/C: 57%
[29]
  viability, T/C: 60.3%
[10]
  viability, T/C: 66.5%
[30]
  viability, T/C: 55.7%
[31]
  viability, T/C: 49.5%
[32]
  viability, T/C: 47.7%
[11]
  viability, T/C: 52.8%
[33]
  viability, T/C: 40.8%
[12]
  viability, T/C: 56.4%
[34]
  viability, T/C: 41%
[35]
  viability, T/C: 42.5%
[36]
  viability, T/C: 74.1%

## Cc1cccc(N(C)C(=O)C2C(O)CCN2c2nc(C)cc(C(F)(F)F)c2C#N)c1 (stereo unspecified) + Cc1cnc(CNC(=O)c2c(=O)c3ccc(N4CCCN(C)CC4)nc3n3c2sc2ccccc23)cn1
Second compound 0.0316 µM
  IC50: > 10 µM
Second compound 0.1 µM
  IC50: > 10 µM
Second compound 0.316 µM
  IC50: > 10 µM
Second compound 1 µM
  IC50: 1.98 µM
Second compound 3.16 µM
  IC50: 0.0342 µM
Second compound 10 µM
  IC50: 0.0762 µM
[1]
  viability, T/C: 87.7%
[13]
  viability, T/C: 70.2%
[2]
  viability, T/C: 62.9%
[14]
  viability, T/C: 75.9%
[15]
  viability, T/C: 70.7%
[16]
  viability, T/C: 81.6%
[3]
  viability, T/C: 67.2%
[17]
  viability, T/C: 72.2%
[4]
  viability, T/C: 76%
[18]
  viability, T/C: 62%
[19]
  viability, T/C: 50%
[20]
  viability, T/C: 78.8%
[5]
  viability, T/C: 82.5%
[21]
  viability, T/C: 79.8%
[6]
  viability, T/C: 59.8%
[22]
  viability, T/C: 52.8%
[23]
  viability, T/C: 65.5%
[24]
  viability, T/C: 49.3%
[7]
  viability, T/C: 71.6%
[25]
  viability, T/C: 62.1%
[8]
  viability, T/C: 52.4%
[26]
  viability, T/C: 56.1%
[27]
  viability, T/C: 50.5%
[28]
  viability, T/C: 44.2%
[9]
  viability, T/C: 48.9%
[29]
  viability, T/C: 50%
[10]
  viability, T/C: 45.5%
[30]
  viability, T/C: 36.2%
[31]
  viability, T/C: 46.1%
[32]
  viability, T/C: 40.9%
[11]
  viability, T/C: 50.6%
[33]
  viability, T/C: 54.8%
[12]
  viability, T/C: 44.4%
[34]
  viability, T/C: 41.2%
[35]
  viability, T/C: 43.2%
[36]
  viability, T/C: 43.4%
